Test results from patent US10358455B2, “Arene ruthenium complex, preparation method and utilization thereof” (Guangdong Pharmaceutical University, priority 2017, dated 2019).
Like-named read-outs stand apart in the source and are kept apart here.

Legend:
[1] = system: rat glioma C6 cancer cells; assay: MTT assay on rat glioma C6 cells; type: cell-based; conditions: 5-80 μM, read-out: The inhibitory effect IC50 on rat glioma C6 cancer cells
Protocol: The Antiproliferative Activities of Arene Ruthenium (II) Complexes Against Rat Glioma C6 Cancer Cells.
(§1) The antiproliferative effects of arene ruthenium (II) complex against rat glioma C6 cells were evaluated by MTT assay. Discarding the medium of the rat glioma C6 cells in exponential growth phase, washing the cells twice with phosphate-buffered saline (PBS), dissociating into single cells by digesting with 1 mL trypsin, counting the cells. Adding fresh medium to dilute cell population to 1.5×10^4 cells/mL, inoculating into 96-well tissue culture plates (3×10^3 cells per well) with 200 μL/well in 6 wells of each group, repeating twice, and then culturing at 37° C. in 5% CO2 saturated humidity incubator for 16 h. After adherent cells are apparent, removing the supernatant carefully and adding DMEM media. Meanwhile, the cells were incubated with different concentrations of arene ruthenium (II) complexes with a final concentration of 5, 10, 20, 40 and 80 μM respectively, and maintain the total volume at 200 μL/well. Thereafter, the cells were cultured for 72 h. At the end of incubation, 20 μL/well of MTT solution (5 mg/mL) was added and incubated for 4 h. Removing the supernatant carefully and replaced with 150 μL/well of DMSO and oscillated for 10 min to ensure complete dissolution of the formazan crystallization. The absorbance values were measured at 490 nm using a microplate reader. Cell viability was calculated according to the following formula: Cell viability (%)=A490 nm (cells in experimental group)/A490 nm (cells in control group)×100%
According to the values of cell viability, calculating the inhibitory activities (IC50) of the target complex against rat glioma C6 cells.

[2] = system: human epidermal HaCaT cells; assay: MTT assay on human epidermal HaCaT cells; type: cell-based; conditions: 72 h, 5-80 μM, normal epidermal cells, read-out: The inhibitory effect IC50 on human epidermal HaCaT cells
Protocol: The Antiproliferative Activities of Arene Ruthenium (II) Complexes Against Human Epidermal HaCaT Cells.
The antiproliferative effects of arene ruthenium (II) complex against human epidermal HaCaT cells were evaluated by MTT assay. Discarding the medium of human epidermal HaCaT cells in exponential growth phase and washing the cells twice with phosphate-buffered saline (PBS), dissociating into single cells by digesting with 1 mL trypsin. Adding fresh medium to dilute cell population to 1.5×10^4 cells/mL, inoculating into 96-well tissue culture plates (3×10^3 cells per well) with 200 μL/well in 6 wells of each group, repeating twice, and then culturing at 37° C. in 5% CO2 saturated humidity incubator for 16 h. After adherent cells are apparent, carefully removing the supernatant and adding DMEM media. Meanwhile, the cells were incubated with different concentrations of arene ruthenium (II) complexes with a final concentration of 5, 10, 20, 40 and 80 μM respectively and maintain the total volume at 200 µL/well. Thereafter, the cells were cultured for 72 h. At the end of incubation, 20 μL/well of MTT solution (5 mg/mL) was added and incubated at 37° C. for 4 h. Removing the supernatant carefully and replaced with 150 μL/well of DMSO and oscillated for 10 min to ensure complete dissolution of the formazan crystallization. The absorbance values were measured at 490 nm using a microplate reader. Cell viability was calculated according to the following formula: Cell viability (%)=A490 nm (cells in experimental group)/A490 nm (cells in control group)×100%
According to the values of cell viability, calculating the inhibitory activities (IC50) of the target complex against human epidermal HaCaT cells.

[3] = system: A549 lung adenocarcinoma cancer cells; assay: MTT assay on A549 lung adenocarcinoma cells; type: cell-based; conditions: 72 h, 5-80 μM, read-out: The inhibitory effect IC50 on A549 lung adenocarcinoma cancer cells
Protocol: The Antiproliferative Activities of Arene Ruthenium (II) Complexes Against A549 Lung Adenocarcinoma Cancer Cells
as §1, with “complex against A549 lung adenocarcinoma cells were” for “complex against rat glioma C6 cells were”, “MTT assay. Discarded the medium” for “MTT assay. Discarding the medium”, “of the A549 lung adenocarcinoma cells in” for “of the rat glioma C6 cells in”, “80 μM respectively and maintain” for “80 μM respectively, and maintain”, “and incubated at 37° C. for 4” for “and incubated for 4”
According to the values of cell viability, calculating the inhibitory activities (IC50) of the target complex against A549 lung adenocarcinoma cancer cells.

[4] = system: MDA-MB-231 breast cancer cells; assay: MTT assay on MDA-MB-231 breast cancer cells; type: cell-based; conditions: 72 h, 5-80 μM, read-out: The inhibitory effect IC50 on MDA-MB-231 breast cancer cells
Protocol: The Anti-Invasion Activities of Arene Ruthenium (II) Complexes Against MDA-MB-231 Breast Cancer Cells.
The anti-invasion activities of arene ruthenium (II) complexes against MDA-MB-231 breast cancer cells was evaluated by MTT assay. Discarding the medium of the MDA-MB-231 breast cancer cells in exponential growth phase, washing the cells twice with phosphate-buffered saline (PBS), dissociating into single cells by digesting with 1 mL trypsin, counting the cells. Adding fresh medium to dilute cell population to 1.5×10^4 cells/mL, inoculating into 96-well tissue culture plates (3×10^3 cells per well) with 200 μL/well in 6 wells of each group, repeating twice, and then culturing at 37° C. in 5% CO2 saturated humidity incubator for 16 h. After adherent cells are apparent, removing the supernatant carefully and adding DMEM media. Meanwhile, the cells were incubated with different concentrations of arene ruthenium (II) complexes with a final concentration of 5, 10, 20, 40 and 80 μM respectively and maintain the total volume at 200 μL/well. Thereafter, the cells were cultured for 72 h. At the end of incubation, 20 μL/well of MTT solution (5 mg/mL) was added and incubated for 4 h. Removing the supernatant carefully and replaced with 150 μL/well of DMSO and oscillated for 10 mins to ensure complete dissolution of the formazan crystallization. The absorbance values were measured at 490 nm using a microplate reader. Cell viability was calculated according to the following formula: Cell viability (%)=A490 nm (cells in experimental group)/A490 nm (cells in control group)×100%
According to the values of cell viability, calculating the inhibitory activities (IC50) of the target complex against MDA-MB-231 cells.

[5] = system: human esophageal carcinoma EC-1 cells; assay: MTT assay on human esophageal carcinoma EC-1 cells; type: cell-based; conditions: 72 h, 5-80 μM, read-out: The inhibitory effect IC50 on human esophageal carcinoma EC-1 cells
Protocol: The Antiproliferative Activities of Arene Ruthenium (II) Complexes Against Human Esophageal Carcinoma EC-1 Cells.
as §1, with “complex against human esophageal carcinoma EC-1 cells were” for “complex against rat glioma C6 cells were”, “medium of human esophageal carcinoma EC-1 cells in” for “medium of the rat glioma C6 cells in”, “with 200 µL/well in 6” for “with 200 μL/well in 6”, “80 μM respectively and maintain” for “80 μM respectively, and maintain”, “and incubated at 37° C. for 4” for “and incubated for 4”
According to the values of cell viability, calculating the inhibitory activities (IC50) of the target complex against human esophageal carcinoma EC-1 cells.

[6] = system: nasopharyngeal carcinoma CNE-1 cancer cells; assay: MTT assay on nasopharyngeal carcinoma CNE-1 cells; type: cell-based; conditions: 72 h, 5-80 μM, read-out: The inhibitory effect IC50 on CNE-1 cancer cells
Protocol: The Antiproliferative Activities of Arene Ruthenium (II) Complexes Against Nasopharyngeal Carcinoma CNE-1 Cancer Cells.
as §1, with “complex against nasopharyngeal carcinoma CNE-1 cells were” for “complex against rat glioma C6 cells were”, “of the nasopharyngeal carcinoma CNE-1 cells in” for “of the rat glioma C6 cells in”, “80 μM respectively and maintain” for “80 μM respectively, and maintain”, “and incubated at 37° C. for 4” for “and incubated for 4”
According to the values of cell viability, calculating the inhibitory activities (IC50) of the target complex against CNE-1 cancer cells.

[7] = system: breast cancer cells; conditions: read-out: anti-proliferative activity IC50, breast cancer cells; cited from earlier work
[8] = system: ovarian cancer cells; conditions: read-out: anti-proliferative activity IC50, ovarian cancer cells; cited from earlier work
[9] = system: lung cancer cells; conditions: read-out: anti-proliferative activity IC50, lung cancer cells; cited from earlier work
[10] = system: nasopharyngeal carcinoma cells; conditions: read-out: anti-proliferative activity IC50, nasopharyngeal carcinoma cells; cited from earlier work
[11] = system: MDA-MB-231 cells; assay: Cell cycle analysis by flow cytometry (PI staining); type: cell-based; conditions: FIG. 75
Protocol: After incubating with arene ruthenium (II) complex RAP07, the cell cycle arrest of MDA-MB-231 cells was analyzed with an Epics XL-MCL flow cytometer. The general method is: Trypsinizing the cells with trypsin, washing the cells with phosphate-buffered saline (PBS), and fixing the cells with 70% ethanol overnight at −20° C. Washing the fixed cells with phosphate-buffered saline (PBS) and staining with propidium iodide (PI) for 4 hours in the dark. Finally, the cell cycle arrest was analyzed using an Epics XL-MCL flow cytometer, cell cycle distribution was analyzed using MultiCycle software (Phoenix Flow Systems, San Diego, Calif.). The number of apoptotic cells with sub-diploid DNA were determined by measuring the […] in the cell cycle, every 10000 cells of each sample were recorded.

Compound	IC50 [4] [µM]	IC50 [5] [µM]	IC50 [6] [µM]	IC50 ([1]; 72 h) [µM]	IC50 [2] [µM]	other results
Cn1nnc2c(C(N)=O)ncn2c1=O [Temozolomide, reference compound]	–	–	–	–	–	IC50 ([1]; Rattus norvegicus, C6, 72 h): 259 ± 15.5 µM
N.N.[Cl][Pt][Cl] [cis-platin, reference compound]	17.8 ± 0.9	9.4 ± 0.21	19.1 ± 0.5	–	17.1 ± 0.8	IC50 [3]: 93.1 ± 0.9 µM
[(η^6-p-cymene)Ru(C6H5-BzTSC)Cl]Cl	–	–	–	–	–	IC50 [7]: 10 µM; IC50 [8]: 34 µM; IC50 [9]: 31 µM; IC50 [10]: 20 µM
[(η^6-p-cymene)Ru(m-ClPIP)Cl]Cl [RAP052]	–	–	–	–	–	IC50 [3]: 36.6 ± 0.67 µM
[(η^6-p-cymene)Ru(o-BrPIP)Cl]Cl [RAP061]	–	–	–	–	> 100	–
[(η^6-p-cymene)Ru(p-CF3PIP)Cl]Cl [RAP083]	6.27 ± 0.29	6.9 ± 0.2	–	4.5 ± 0.07	> 100	–
[(η^6-p-cymene)Ru(p-FPIP)Cl]Cl [RAP04]	–	18.2 ± 0.5	–	1.2 ± 0.3	–	–
[(η^6-p-cymene)Ru(p-N(CH3)2PIP)Cl]Cl [RAP093]	6.4 ± 0.16	–	11.9 ± 0.73	5.6 ± 0.11	> 100	–

Now from value to compound, other results behind:

IC50 [4] [µM]	IC50 [5] [µM]	IC50 [6] [µM]	IC50 ([1]; 72 h) [µM]	Compound	IC50 [2] [µM]	other results
9.2 ± 0.3	–	15.7 ± 0.11	5.4 ± 0.17	[(η^6-p-cymene)Ru(m-BrPIP)Cl]Cl [RAP062]	37.3 ± 1.99	IC50 [3]: 6.59 ± 2.26 µM
–	–	17.4 ± 0.47	–	[(η^6-p-cymene)Ru(o-OCH3PIP)Cl]Cl [RAP201]	–	–
8.33 ± 0.6	18.1 ± 1.7	–	5.6 ± 0.2	[(η^6-p-cymene)Ru(p-BrPIP)Cl]Cl [RAP07]	–	Cell cycle arrest of MDA-MB-231 cells [11]: Induces the S-Phase Arrest
9.6 ± 0.3	18.4 ± 11.7	–	–	[(η^6-p-cymene)Ru(p-CH3PIP)Cl]Cl [RAP273]	–	–
3.2 ± 0.1	–	3.3 ± 0.07	–	[(η^6-p-cymene)Ru(p-IPIP)Cl]Cl [RAP073]	–	–
–	–	–	2.4 ± 0.05	[(η^6-p-cymene)Ru(p-NO2PIP)Cl]Cl [RAP143]	–	IC50 [3]: 11.8 ± 0.9 µM
